Drawing on the Deep4Chem optical property database, this text covers fluorescence lifetime for 35 compounds.

The nature of the data set: solvent given as SMILES.
The mark [1] stands for this setting: in O=P(c1ccccc1)(c1ccccc1)c1ccccc1Oc1ccccc1P(=O)(c1ccccc1)c1ccccc1.
Setting [2] is: in c1cc(-n2c3ccccc3c3ccccc32)cc(-n2c3ccccc3c3ccccc32)c1.

For `c1ccc(-c2nc(-c3ccc(-c4nc(-c5ccccc5)c(-c5ccccc5)[nH]4)cc3)[nH]c2-c2ccccc2)cc1`, the fluorescence lifetime was determined as 1.11 ns (in CC#N) and 1.05 ns (in CS(C)=O).
For the compound `CN(C)c1ccc(/C=C/c2cc[n+](CCCOCC(COCCC[n+]3ccc(/C=C/c4ccc(N(C)C)cc4)cc3)(COCCC[n+]3ccc(/C=C/c4ccc(N(C)C)cc4)cc3)COCCC[n+]3ccc(/C=C/c4ccc(N(C)C)cc4)cc3)cc2)cc1`, the fluorescence lifetime is 0.48 ns (in CCCCCCCCO); 0.18 ns (in CCCO); 0.11 ns (in CCO); 0.09 ns (in CO); 0.46 ns (in ClC(Cl)Cl); 0.31 ns (in ClCCl).
On to `CC(=O)Nc1ccccc1C(=O)OC1CC(C)CCC1C(C)C` (configuration not stated), for which the fluorescence lifetime turned out to be 4 ns (in C1CCCCC1), 3.4 ns (in CC#N), 3.6 ns (in CCO) and 3.9 ns (in Cc1ccccc1).
In the case of `Cc1ccc(N(CC(=O)[O-])CC(=O)[O-])cc1OCCOc1cc(-c2cc3ccc(C(=O)[O-])cc3[nH]2)ccc1N(CC(=O)[O-])CC(=O)[O-]`, the fluorescence lifetime (in O) turned out to be 1.4 ns.
As for `O=S(=O)(c1ccc(N(c2ccccc2)c2ccccc2)cc1)c1ccc(N(c2ccccc2)c2ccccc2)cc1`, the fluorescence lifetime (in Cc1ccccc1) came out at 2.2 ns and the fluorescence lifetime under setting [1] came to 3.5 ns.
`C[n+]1ccc(-c2cc[n+](C)cc2)cc1`: under “in CC#N”, the fluorescence lifetime is 0.9 ns.
Where the note is “in ClC(Cl)Cl”, `CN(C)c1ccc(-c2cc(-c3ccc(C#N)cc3)nc(-c3ccccc3)n2)cc1` had a fluorescence lifetime of 3.5 ns.
With `CN(C)c1ccc(-c2nc3cccnc3[nH]2)cc1`, the fluorescence lifetime was 1.08 ns (in C1CCCCC1) and 1.58 ns (in CC#N).
Where the note is “in ClC(Cl)Cl”, `CCCCCCN1C(=O)c2cccc3c(-c4cccs4)ccc(c23)C1=O` had a fluorescence lifetime of 1.92 ns.
`CCCCCCC(CCCCCC)N1C(=O)c2cccc3c(-c4cc(OC)c(OC)c(OC)c4)ccc(c23)C1=O`: the fluorescence lifetime by setting is: (in CCCCCC) 2.03 ns; (in CCCCCCCCCCCCCC) 2.78 ns; (in CCCCCCCCCCCO) 1.75 ns; (in CCCCO) 0.208 ns; (in CN(C)C=O) 0.119 ns; (in Cc1ccccc1) 5.4 ns. Besides, for the setting “in ClC(Cl)Cl”, the fluorescence lifetime came to 6.62 ns.
`N#Cc1cc(-n2c3ccccc3c3ncccc32)c(-n2c3ccccc3c3ncccc32)cc1C#N` displayed a fluorescence lifetime under setting [2] of 70 ns.
`CCCCCCCCCCN1C(=O)c2cc(NCCCOCCO)c3c4c(cc(NCCCOCCO)c(c24)C1=O)C(=O)N(CCCCCCCCCC)C3=O`: the fluorescence lifetime was found to be 7.8 ns (in CO) and 9.7 ns (in ClC(Cl)Cl).
Compound `CC1(C)c2ccccc2N(c2ccc(-c3nnc(-c4cc(-c5ccccc5)c(-c5ccccc5)c(-c5ccccc5)c4-c4ccccc4)o3)cc2)c2ccccc21` returned a fluorescence lifetime (in c1ccc(-n2c(-c3c(-n4c5ccccc5c5ccccc54)cccc3-n3c4ccccc4c4ccccc43)nc3ccccc32)cc1) of 5.5 ns.
Regarding `c1ccc(C(=C(c2ccccc2)c2ccc(-c3ccc(-c4nc5c(-c6ccc(-c7ccc(C(=C(c8ccccc8)c8ccccc8)c8ccccc8)cc7)cc6)sc(-c6ccc(-c7ccc(C(=C(c8ccccc8)c8ccccc8)c8ccccc8)cc7)cc6)c5nc4-c4ccc(-c5ccc(C(=C(c6ccccc6)c6ccccc6)c6ccccc6)cc5)cc4)cc3)cc2)c2ccccc2)cc1`, where the note is “in ClCCl”, the fluorescence lifetime turned out to be 6.7 ns.
Turning to `COc1ccc2c(c1)-c1ccccc1C2=O`, the fluorescence lifetime by setting is: (in C1CCCCC1) 5.3 ns; (in CC#N) 14 ns; (in CCO) 1.1 ns.
Consider `CC(C)(C)NC(=O)c1ccc2ccc3cccc4c3c2c1c1c2ccccc2c2ccccc2c41`, for which the fluorescence lifetime (in ClCCl) was found to be 11.9 ns.
Consider `CC(=O)O[B-]1(OC(C)=O)OC(/C=C/c2ccc(C)cc2)=CC(/C=C/c2ccc(C)cc2)=[O+]1`, for which the fluorescence lifetime came to 1.32 ns (in C1CCOC1); 1.23 ns (in CC#N); 1.19 ns (in CC(C)=O); 1.27 ns (in CS(C)=O); 1.34 ns (in Cc1ccccc1); 1.25 ns (in ClC(Cl)Cl). For the setting “in ClCCl”, this compound had a fluorescence lifetime of 1.26 ns.
In turn, `N#Cc1c(-n2c3ccccc3c3cc(Br)ccc32)c(C#N)c(-n2c3ccccc3c3cc(Br)ccc32)c(-n2c3ccccc3c3cc(Br)ccc32)c1-n1c2ccccc2c2cc(Br)ccc21` came in with a fluorescence lifetime (in Cc1ccccc1) of 0.4 ns.
`CN(C)c1ccc(/C=C/C(=C(C#N)C#N)c2ccc3c4c(cccc24)CC3)cc1`: the fluorescence lifetime by setting is: (in C1CCOC1) 5.2 ns; (in CC#N) 2.25 ns; (in CC(C)=O) 3.84 ns; (in CCOC(C)=O) 4.98 ns; (in CN(C)C=O) 3.31 ns; (in CO) 2.85 ns. For the same compound, the fluorescence lifetime is 3.92 ns (in Cc1ccccc1) and 4.27 ns (in ClC(Cl)Cl).
For `COc1cc2[nH]c3c(c2cc1OCC(=O)O)CCCC3=O`, the fluorescence lifetime reads like this: (in C1CCOC1) 0.411 ns; (in C1COCCO1) 0.189 ns; (in CC#N) 0.627 ns; (in CCCCCCCCCCCCO) 1.24 ns; (in CCCCCCCCCCO) 1.17 ns; (in CCCCCCCCO) 1.15 ns. Also, the fluorescence lifetime came out at 1.17 ns (in CCCCCCO); 1.29 ns (in CCCCO); 1.69 ns (in CCO); 0.279 ns (in CCOC(C)=O); 1.92 ns (in CN(C)C=O); 1.87 ns (in CO). Moreover, the fluorescence lifetime was 2.27 ns (in CS(C)=O), 0.189 ns (in Cc1ccccc1), 2.23 ns (in O) and 0.188 ns (in c1ccccc1).
Regarding `CCCCCCCCC1(CCCCCCCC)c2cc(-c3ccc([Si](C)(C)C)cc3)ccc2-c2ccc(-c3ccc([Si](C)(C)C)cc3)cc21`, the fluorescence lifetime (in CN(C)C=O) turned out to be 1.01 ns.
With `CC(C)(C)c1ccc2c(c1)c1cc(C(C)(C)C)ccc1n2-c1ccc(C#Cc2ccc3c4ccc(C#Cc5ccc(-n6c7ccc(C(C)(C)C)cc7c7cc(C(C)(C)C)ccc76)cc5)cc4n(-c4ccc(C(F)(F)F)cc4)c3c2)cc1`, the fluorescence lifetime (in ClCCl) is 0.1 ns.
The same measure, in the same setting: to `COC(=O)c1[nH]c(-c2ccccc2)c2nnc3c4ccccc4oc3c12` belongs 3.36 ns.
In turn, `COc1ccc(C(=Cc2ccc(C#N)cc2)c2ccc(OC)cc2)cc1` gave a fluorescence lifetime (in C1CCOC1) of 6.9 ns.
Take `O=c1c2ccccc2n2c3ccccc3c(=O)c3cc(-c4ccccc4)cc1c32`: the fluorescence lifetime is, setting by setting: (in c1cc(-c2cccc(-n3c4ccccc4c4ccccc43)c2)cc(-n2c3ccccc3c3ccccc32)c1) 5.47 ns; under setting [2], 5.47 ns.
Turning to `CC1=CC(C)=[N+]2C1=C(c1ccccc1)c1c(C)cc(C)n1[B-]2(F)F`, the fluorescence lifetime was 3.73 ns (in C1CCOC1); 3.81 ns (in CC#N); 3.39 ns (in CC(=O)C(C)(C)C); 3.65 ns (in CC(C)=O); 3.37 ns (in CCCCCC); 3.98 ns (in CCOC(C)=O). The fluorescence lifetime is, setting by setting: (in CO) 3.9 ns; (in Cc1ccccc1) 3.4 ns; (in ClCCl) 3.97 ns.
Compound `COc1ccc(-c2c3cc4ccccc4cc3c(-c3ccc(OC)cc3)c3cc4sc(C)cc4cc23)cc1` registered a fluorescence lifetime (in ClCCl) of 15.4 ns.
With `N#CC=C(c1ccc(N2c3ccccc3Oc3ccccc32)cc1)c1ccc(N2c3ccccc3Oc3ccccc32)cc1`, the fluorescence lifetime (in Cc1ccccc1) amounted to 5.84 ns.
On to `N#C/C(=C\c1ccncc1)c1nc(-c2ccccc2)cs1`, for which the fluorescence lifetime (in CC#N) was determined as 4.85 ns.
In turn, `Cc1ccc(S(=O)(=O)/N=c2\oc3cccc4c5c(-c6ccccc6)oc6cccc(c(c2-c2ccccc2)c34)c65)cc1` had a fluorescence lifetime (in ClC(Cl)Cl) of 3.4 ns.
Regarding `COC(=O)C(Cc1ccc2oc(-c3ccc(N(C)c4ccccc4)cc3)nc2c1)NC(=O)OC(C)(C)C` (configuration not stated), the fluorescence lifetime runs as follows: (in C1CCCCC1) 1.81 ns; (in C1CCOC1) 5.29 ns; (in C1COCCO1) 4.14 ns; (in CC1CCCO1) 4.37 ns; (in CC1COC(=O)O1) 4.3 ns; (in CC#N) 4.23 ns. Moreover, the fluorescence lifetime (in CC(C)=O) was 5.11 ns; the fluorescence lifetime (in CC(C)CC(C)(C)C) is 1.7 ns; the fluorescence lifetime (in CC(C)CO) was determined as 4.24 ns; the fluorescence lifetime (in CC(C)O) was 4.41 ns; the fluorescence lifetime (in CC(O)CO) was 0.88 ns; the fluorescence lifetime (in CCC(C)CC) was 1.67 ns. Besides, the fluorescence lifetime by setting is: (in CCCCC) 1.88 ns; (in CCCCCC) 1.66 ns; (in CCCCCCCCC) 1.78 ns; (in CCCCCCCCCC) 1.79 ns; (in CCCCCCCO) 4.34 ns; (in CCCCCCO) 4.64 ns. Further, the fluorescence lifetime (in CCCCCO) was determined as 5.44 ns; the fluorescence lifetime (in CCCCO) is 3.97 ns; the fluorescence lifetime (in CCO) amounted to 1.59 ns; the fluorescence lifetime (in CCOC(C)=O) was 4.68 ns; the fluorescence lifetime (in CCOCC) stood at 4.4 ns; the fluorescence lifetime (in CN(C)C=O) was 5.1 ns. Moreover, the fluorescence lifetime (in CO) was 0.76 ns; the fluorescence lifetime (in COCCOC) stood at 1.18 ns; the fluorescence lifetime (in CS(C)=O) was 4.74 ns; the fluorescence lifetime (in Cc1ccccc1) stood at 2.81 ns; the fluorescence lifetime (in Cc1ccccc1C) worked out at 2.7 ns; the fluorescence lifetime (in ClC(Cl)Cl) is 4.71 ns. The fluorescence lifetime runs as follows: (in ClCCl) 6.11 ns; (in NC=O) 2.35 ns; (in OC1CCCCC1) 4.88 ns; (in OCCO) 0.41 ns; (in c1ccccc1) 2.97 ns.
`CC(C)(C)c1ccc2c(c1)c1cc(C(C)(C)C)ccc1n2-c1cccc2c1Oc1c(-c3nc(-c4ccccc4)nc(-c4ccccc4)n3)cccc1C2(C)C` gave a fluorescence lifetime (in Cc1ccccc1) of 4 ns.
Take `COc1ccc2c(c1)c1cc(OC)ccc1n2-c1cccc(-n2c3ccc(OC)cc3c3cc(OC)ccc32)c1C#N`: the fluorescence lifetime is 13 ns (in Cc1ccccc1) and 12.8 ns under setting [1].
`Nc1cccc2cc3ccccc3cc12` gave a fluorescence lifetime (in C1CCCCC1) of 29 ns.
Where the note is “in ClC(Cl)Cl”, `Cc1ccc(C2=Cc3c4ccccc4cc[n+]3[B-](F)(F)O2)cc1` returned a fluorescence lifetime of 0.377 ns.
